{"source": "patent US11203563B2", "about": "“Preparation of zinc linolenate, and application of zinc linolenate in preparing anti-helicobacter pylori drug” (NANJING MEDICAL UNIVERSITY, priority 2018, dated 2021)", "format_in_all_cases": "cell-based", "key": {"[1]": {"system": "Helicobacter pylori G27", "test": "MIC by broth microdilution method", "set-up": "key: +: Bacterial growth; −: No bacterial growth", "conditions": "G27 (Sensitive), 72 h", "method": "(§1) 2.1 Detection of minimum inhibitory concentration (MIC, 100 µL system) of zinc linolenate for Helicobacter pylori by a broth microdilution method\n(§2) (1) Zinc linolenate (2 mg/mL) is prepared.\n(§3) (3) Bacterial solution preparation: the Helicobacter pylori grown in a log phase on a solid plate is taken to make a bacterial suspension with a BHI culture medium, the absorbance (OD600) is adjusted to 0.3 (1×10^8 CFU/mL), and the bacterial suspension is diluted 10 times to 1×10^7 CFU/mL for later use.\n(§4) (4) Inoculation of bacterial solution: 10 μL of bacterial solution above is taken and added to the 1-8th wells (the concentration of the bacterial solution per well is about 1.0×10^6 CFU/mL). Culture is performed for 72 h to judge the result. The drug concentrations of the 1-7th wells are 64, 32, 16, 8, 4, 2, and 1 μg/mL, respectively.\n(§5) The experiment only makes sense when the bacteria obviously grow in the 8th well, i.e. the positive control well (without antibiotics). When a single drift occurs in the microdilution method, the maximum drug concentration that inhibits bacterial growth should be recorded. If there are multiple drifts, the results should not be reported and the experiment should be repeated. The experiment is repeated 3 times for each drug."}, "[2]": {"system": "Helicobacter pylori HP159", "test": "MIC by broth microdilution method", "set-up": "key: +: Bacterial growth; −: No bacterial growth", "conditions": "HP159 (Levofloxacin, clarithromycin and metronidazole resistant), 72 h", "method": "as §1, §2, §3, §4, §5"}, "[3]": {"system": "Helicobacter pylori HP160", "test": "MIC by broth microdilution method", "set-up": "key: +: Bacterial growth; −: No bacterial growth", "conditions": "HP160 (Metronidazole resistant), 72 h", "method": "as §1, §2, §3, §4, §5"}, "[4]": {"system": "Helicobacter pylori HP161", "test": "MIC by broth microdilution method", "set-up": "key: +: Bacterial growth; −: No bacterial growth", "conditions": "HP161 (Clarithromycin resistant), 72 h", "method": "as §1, §2, §3, §4, §5"}, "[5]": {"system": "Helicobacter pylori HP162", "test": "MIC by broth microdilution method", "set-up": "key: +: Bacterial growth; −: No bacterial growth", "conditions": "HP162 (Levofloxacin resistant), 72 h", "method": "as §1, §2, §3, §4, §5"}, "[6]": {"system": "Helicobacter pylori HP163", "test": "MIC by broth microdilution method", "set-up": "key: +: Bacterial growth; −: No bacterial growth", "conditions": "HP163 (Levofloxacin and metronidazole resistant), 72 h", "method": "as §1, §2, §3, §4, §5"}, "[7]": {"system": "Helicobacter pylori HP26695", "test": "MIC by broth microdilution method", "set-up": "key: +: Bacterial growth; −: No bacterial growth", "conditions": "HP26695 (Sensitive), 72 h", "method": "as §1, §2, §3, §4, §5"}, "[8]": {"system": "Helicobacter pylori HP285", "test": "MIC by broth microdilution method", "set-up": "key: +: Bacterial growth; −: No bacterial growth", "conditions": "HP285 (Clarithromycin and metronidazole resistant), 72 h", "method": "as §1, §2, §3, §4, §5"}, "[9]": {"system": "Helicobacter pylori MSD132", "test": "MIC by broth microdilution method", "set-up": "key: +: Bacterial growth; −: No bacterial growth", "conditions": "MSD132 (Sensitive), 72 h", "method": "as §1, §2, §3, §4, §5"}, "[10]": {"system": "Helicobacter pylori NSH57", "test": "MIC by broth microdilution method", "set-up": "key: +: Bacterial growth; −: No bacterial growth", "conditions": "NSH57 (Sensitive), 72 h", "method": "as §1, §2, §3, §4, §5"}, "[11]": {"system": "25 kinds of non-Helicobacter pylori bacteria, including Staphylococcus aureus", "test": "MIC by microdilution method, 25 kinds of non-Helicobacter pylori bacteria together", "conditions": "all 25 kinds of non-Helicobacter pylori bacteria, 72 h", "method": "2.2 Detection of minimum inhibitory concentration (MIC, 100 µL system) of zinc linolenate for non-Helicobacter pylori bacteria by microdilution method\nas §2\nas §3, with “the non-Helicobacter” for “the Helicobacter”, “diluted 100” for “diluted 10”, “to 1×10^6” for “to 1×10^7”, “for” for “for later”\nas §4, with “about 1.0×10^5” for “about 1.0×10^6”, “the first-seventh” for “the 1-7th”, “are 128,” for “are”, “4,” for “4, 2,”, “and 2” for “and 1”\nas §5"}}}
{"smiles": "CC/C=C\\C/C=C\\C/C=C\\CCCCCCCC(=O)[O-].CC/C=C\\C/C=C\\C/C=C\\CCCCCCCC(=O)[O-].[Zn+2]", "note": "[zinc linolenate]", "values": [{"measurement": "Bacterial growth", "setting": "[1]; zinc linolenate 1 μg/ml", "result": "+"}, {"measurement": "Bacterial growth", "setting": "[1]; zinc linolenate 2 μg/ml", "result": "+"}, {"measurement": "Bacterial growth", "setting": "[1]; zinc linolenate 4 μg/ml", "result": "−"}, {"measurement": "Bacterial growth", "setting": "[1]; zinc linolenate 8 μg/ml", "result": "−"}, {"measurement": "Bacterial growth", "setting": "[1]; zinc linolenate 16 μg/ml", "result": "−"}, {"measurement": "Bacterial growth", "setting": "[1]; zinc linolenate 32 μg/ml", "result": "−"}, {"measurement": "Bacterial growth", "setting": "[1]; zinc linolenate 64 μg/ml", "result": "−"}, {"measurement": "Bacterial growth", "setting": "[2]; zinc linolenate 1 μg/ml", "result": "+"}, {"measurement": "Bacterial growth", "setting": "[2]; zinc linolenate 2 μg/ml", "result": "+"}, {"measurement": "Bacterial growth", "setting": "[2]; zinc linolenate 4 μg/ml", "result": "+"}, {"measurement": "Bacterial growth", "setting": "[2]; zinc linolenate 8 μg/ml", "result": "−"}, {"measurement": "Bacterial growth", "setting": "[2]; zinc linolenate 16 μg/ml", "result": "−"}, {"measurement": "Bacterial growth", "setting": "[2]; zinc linolenate 32 μg/ml", "result": "−"}, {"measurement": "Bacterial growth", "setting": "[2]; zinc linolenate 64 μg/ml", "result": "−"}, {"measurement": "Bacterial growth", "setting": "[3]; zinc linolenate 1 μg/ml", "result": "+"}, {"measurement": "Bacterial growth", "setting": "[3]; zinc linolenate 2 μg/ml", "result": "+"}, {"measurement": "Bacterial growth", "setting": "[3]; zinc linolenate 4 μg/ml", "result": "−"}, {"measurement": "Bacterial growth", "setting": "[3]; zinc linolenate 8 μg/ml", "result": "−"}, {"measurement": "Bacterial growth", "setting": "[3]; zinc linolenate 16 μg/ml", "result": "−"}, {"measurement": "Bacterial growth", "setting": "[3]; zinc linolenate 32 μg/ml", "result": "−"}, {"measurement": "Bacterial growth", "setting": "[3]; zinc linolenate 64 μg/ml", "result": "−"}, {"measurement": "Bacterial growth", "setting": "[4]; zinc linolenate 1 μg/ml", "result": "+"}, {"measurement": "Bacterial growth", "setting": "[4]; zinc linolenate 2 μg/ml", "result": "+"}, {"measurement": "Bacterial growth", "setting": "[4]; zinc linolenate 4 μg/ml", "result": "+"}, {"measurement": "Bacterial growth", "setting": "[4]; zinc linolenate 8 μg/ml", "result": "−"}, {"measurement": "Bacterial growth", "setting": "[4]; zinc linolenate 16 μg/ml", "result": "−"}, {"measurement": "Bacterial growth", "setting": "[4]; zinc linolenate 32 μg/ml", "result": "−"}, {"measurement": "Bacterial growth", "setting": "[4]; zinc linolenate 64 μg/ml", "result": "−"}, {"measurement": "Bacterial growth", "setting": "[5]; zinc linolenate 1 μg/ml", "result": "+"}, {"measurement": "Bacterial growth", "setting": "[5]; zinc linolenate 2 μg/ml", "result": "−"}, {"measurement": "Bacterial growth", "setting": "[5]; zinc linolenate 4 μg/ml", "result": "−"}, {"measurement": "Bacterial growth", "setting": "[5]; zinc linolenate 8 μg/ml", "result": "−"}, {"measurement": "Bacterial growth", "setting": "[5]; zinc linolenate 16 μg/ml", "result": "−"}, {"measurement": "Bacterial growth", "setting": "[5]; zinc linolenate 32 μg/ml", "result": "−"}, {"measurement": "Bacterial growth", "setting": "[5]; zinc linolenate 64 μg/ml", "result": "−"}, {"measurement": "Bacterial growth", "setting": "[6]; zinc linolenate 1 μg/ml", "result": "+"}, {"measurement": "Bacterial growth", "setting": "[6]; zinc linolenate 2 μg/ml", "result": "+"}, {"measurement": "Bacterial growth", "setting": "[6]; zinc linolenate 4 μg/ml", "result": "+"}, {"measurement": "Bacterial growth", "setting": "[6]; zinc linolenate 8 μg/ml", "result": "−"}, {"measurement": "Bacterial growth", "setting": "[6]; zinc linolenate 16 μg/ml", "result": "−"}, {"measurement": "Bacterial growth", "setting": "[6]; zinc linolenate 32 μg/ml", "result": "−"}, {"measurement": "Bacterial growth", "setting": "[6]; zinc linolenate 64 μg/ml", "result": "−"}, {"measurement": "Bacterial growth", "setting": "[7]; zinc linolenate 1 μg/ml", "result": "+"}, {"measurement": "Bacterial growth", "setting": "[7]; zinc linolenate 2 μg/ml", "result": "+"}, {"measurement": "Bacterial growth", "setting": "[7]; zinc linolenate 4 μg/ml", "result": "+"}, {"measurement": "Bacterial growth", "setting": "[7]; zinc linolenate 8 μg/ml", "result": "−"}, {"measurement": "Bacterial growth", "setting": "[7]; zinc linolenate 16 μg/ml", "result": "−"}, {"measurement": "Bacterial growth", "setting": "[7]; zinc linolenate 32 μg/ml", "result": "−"}, {"measurement": "Bacterial growth", "setting": "[7]; zinc linolenate 64 μg/ml", "result": "−"}, {"measurement": "Bacterial growth", "setting": "[8]; zinc linolenate 1 μg/ml", "result": "+"}, {"measurement": "Bacterial growth", "setting": "[8]; zinc linolenate 2 μg/ml", "result": "+"}, {"measurement": "Bacterial growth", "setting": "[8]; zinc linolenate 4 μg/ml", "result": "+"}, {"measurement": "Bacterial growth", "setting": "[8]; zinc linolenate 8 μg/ml", "result": "−"}, {"measurement": "Bacterial growth", "setting": "[8]; zinc linolenate 16 μg/ml", "result": "−"}, {"measurement": "Bacterial growth", "setting": "[8]; zinc linolenate 32 μg/ml", "result": "−"}, {"measurement": "Bacterial growth", "setting": "[8]; zinc linolenate 64 μg/ml", "result": "−"}, {"measurement": "Bacterial growth", "setting": "[9]; zinc linolenate 1 μg/ml", "result": "+"}, {"measurement": "Bacterial growth", "setting": "[9]; zinc linolenate 2 μg/ml", "result": "+"}, {"measurement": "Bacterial growth", "setting": "[9]; zinc linolenate 4 μg/ml", "result": "+"}, {"measurement": "Bacterial growth", "setting": "[9]; zinc linolenate 8 μg/ml", "result": "−"}, {"measurement": "Bacterial growth", "setting": "[9]; zinc linolenate 16 μg/ml", "result": "−"}, {"measurement": "Bacterial growth", "setting": "[9]; zinc linolenate 32 μg/ml", "result": "−"}, {"measurement": "Bacterial growth", "setting": "[9]; zinc linolenate 64 μg/ml", "result": "−"}, {"measurement": "Bacterial growth", "setting": "[10]; zinc linolenate 1 μg/ml", "result": "+"}, {"measurement": "Bacterial growth", "setting": "[10]; zinc linolenate 2 μg/ml", "result": "+"}, {"measurement": "Bacterial growth", "setting": "[10]; zinc linolenate 4 μg/ml", "result": "+"}, {"measurement": "Bacterial growth", "setting": "[10]; zinc linolenate 8 μg/ml", "result": "−"}, {"measurement": "Bacterial growth", "setting": "[10]; zinc linolenate 16 μg/ml", "result": "−"}, {"measurement": "Bacterial growth", "setting": "[10]; zinc linolenate 32 μg/ml", "result": "−"}, {"measurement": "Bacterial growth", "setting": "[10]; zinc linolenate 64 μg/ml", "result": "−"}, {"measurement": "MIC", "setting": "[11]", "result": "greater than or equal to 128 μg/mL"}]}
